Data taken from patent US20230346773A1, “USE OF PCSK9 INHIBITOR IN PREPARATION OF PRODUCT FOR TREATING MULTIPLE DISEASES” (priority 2020, published 2023).

Experiments:
Format in all cases: in vivo, Wistar rats
TIMP-1 = test: Bleomycin pulmonary fibrosis rat model: TIMP-1 expression in lung tissue; settings: after 14 days of treatment, tail vein 3 mg/kg·d, n = 6, x ± s
Method: (§1) Rats were numbered according to their body weight and divided into groups according to their body weight by random arrangement table method, and divided into small molecule compound treatment group (tail vein injection of PCSK9 small molecule compound inhibitor, 3 mg/kg·d), siPcsk9 treatment group (Tail vein injection of PCSK9 small interfering RNA, 3 mg/kg·d), monoclonal antibody treatment group (tail vein injection of PCSK9 monoclonal antibody, 3 mg/kg·d), peptide treatment group (tail vein injection of PCSK9 polypeptide inhibitor, 3 mg/kg·d), model group (injection of physiological saline into tail vein, 3 mg/kg·d), and blank control group (injection of physiological saline into tail vein, 3 mg/kg·d), 12 animals in each group, half male and half female. Rats in each group were anesthetized by intraperitoneal injection of 2% sodium pentobarbital ([…]), fixed on the operating table, and injected into the neck trachea. The control group was injected with normal saline (1.25 ml/kg), and the model group and each treatment group were injected with 5 U/mL bleomycin solution (5 mg/kg). […]
(§2) Peripheral venous blood was collected from the tail vein of animals in each group after modeling and 14 days after treatment, and the levels of superoxide dismutase (SOD) and catalase (CAT) in peripheral blood were detected. […]

MMP-2 = test: Bleomycin pulmonary fibrosis rat model: MMP-2 expression in lung tissue; settings: after 14 days of treatment, tail vein 3 mg/kg·d, n = 6, x ± s
Method: as §1, §2

MMP-9 = test: Bleomycin pulmonary fibrosis rat model: MMP-9 expression in lung tissue; settings: after 14 days of treatment, tail vein 3 mg/kg·d, n = 6, x ± s
Method: as §1, §2

VEGF protein = test: Bleomycin pulmonary fibrosis rat model: VEGF protein in lung tissue by ELISA; settings: n = 6, x ± s
Method: as §1, §2

VEGF-mRNA = test: Bleomycin pulmonary fibrosis rat model: VEGF-mRNA in lung tissue by reverse transcription PCR; settings: n = 6, x ± s
Method: as §1, §2

[1] = system: superoxide dismutase (SOD); test: Bleomycin pulmonary fibrosis rat model: SOD in peripheral blood; settings: n = 6, x ± s
Method: as §1, §2

catalase (CAT) = test: Bleomycin pulmonary fibrosis rat model: CAT in peripheral blood; settings: n = 6, x ± s
Method: as §1, §2

[2] = after modeling (before the 14 days of treatment)
[3] = tail vein 3 mg/kg·d once a day for 14 days

COc1ccc(CCC(=O)N(c2nccc3ccccc23)[C@@H]2CCCNC2)cc1 [Compound group 1, R-IMPP]
TIMP-1 (TIMP-1): 8.56 ± 0.58
MMP-2 (MMP-2): 2.67 ± 0.32
MMP-9 (MMP-9): 3.43 ± 0.34
VEGF protein, 14 days after modeling (VEGF protein; [2]): 38.47 ± 3.23 pg/mL
VEGF protein, 14 days after treatment (VEGF protein; [3]): 57.61 ± 3.86 pg/mL
VEGF-mRNA, 14 days after modeling (VEGF-mRNA; [2]): 0.53 ± 0.16
VEGF-mRNA, 14 days after treatment (VEGF-mRNA; [3]): 0.85 ± 0.16
SOD, 14 days after modeling [1, 2]: 171.45 ± 13.92 U/ml
SOD, 14 days after treatment [1, 3]: 218.56 ± 14.36 U/ml
CAT, 14 days after modeling (catalase (CAT); [2]): 9.43 ± 2.31 kU/g
CAT, 14 days after treatment (catalase (CAT); [3]): 14.45 ± 1.51 kU/g
